Assay results published in ChEMBL document CHEMBL5729562, “Proteasome activity enhancing compounds” (2023).

Molecular target: Ubiquitin carboxyl-terminal hydrolase 14 (Homo sapiens, UniProt P54578)
Assay: Usp14 Inhibition Assay: Usp14 Inhibition Assay was described in B. H. Lee et al. Nature 2010, 467 (9), 179.

Ubiquitin carboxyl-terminal hydrolase 14, sequence (P54578 whole entry): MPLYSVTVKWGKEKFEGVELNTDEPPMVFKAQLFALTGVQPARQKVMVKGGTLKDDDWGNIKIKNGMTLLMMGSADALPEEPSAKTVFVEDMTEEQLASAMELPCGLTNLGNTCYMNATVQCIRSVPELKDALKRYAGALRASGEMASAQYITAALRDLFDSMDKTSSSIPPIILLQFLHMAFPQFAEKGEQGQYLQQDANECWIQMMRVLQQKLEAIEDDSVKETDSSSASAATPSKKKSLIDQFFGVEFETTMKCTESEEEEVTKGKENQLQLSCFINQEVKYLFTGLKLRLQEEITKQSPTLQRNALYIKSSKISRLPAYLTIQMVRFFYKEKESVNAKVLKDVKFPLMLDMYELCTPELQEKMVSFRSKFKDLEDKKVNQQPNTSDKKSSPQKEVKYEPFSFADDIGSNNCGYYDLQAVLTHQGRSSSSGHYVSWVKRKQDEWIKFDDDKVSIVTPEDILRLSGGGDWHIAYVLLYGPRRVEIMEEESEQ

| SMILES | IC50 [nM] |
| --- | --- |
| Cc1c(C(=O)CN2C3CC4CC2CC(C3)O4)cc(CCCCC#N)n1-c1ccc(C#N)cc1 | < 50 |
| Cc1c(C(=O)CN2C3CCC2CC3)cc(C#CCCC#N)n1-c1ccc(C#N)cc1 | < 50 |
